Where two headings read alike, the source gives them in different places.
How the values were obtained:
[1] = test system: FADD-deficient Jurkat T cells treated with TNF-α; assay: Inhibition of necroptosis (CICD) in FADD-deficient Jurkat T cells treated with TNF-α, ATP-based viability; type: cell-based, human; conditions: for antinecroptotic (anti-CICD) activity, in words: FADD-deficient Jurkat cells, TNFα
[2] = Homo sapiens, Jurkat, 24 h, read-out: EC50 (μM) for inhibition of necroptosis
[3] = 10 ng/mL human TNF-α, 24 hours, ATP-based viability, EC50 ± SD from at least two independent experiments, read-out: EC50 (μM) for inhibition of necroptosis

Structure (SMILES) | EC50 [1, 2] [µM] | antinecroptotic (anti-CICD) activity, in words [1] | other results
COc1ccc([C@H]2[C@H]3C[C@H](N)c4ccc(OC)cc4C3=NN2C(C)=O)cc1 (relative stereo) [Compound 145, (3R,3aR,5S)-rel-2-acetyl-5-amino-3,3a,4,5-tetrahydro-3-(4-methoxyphenyl)-8-methoxy-2H-benz[g]indazole] | 1.2 ± 0.38 | – | –
COc1ccc([C@H]2[C@H]3C[C@H](N(C)C)c4ccc(OC)cc4C3=NN2C(C)=O)cc1 (relative stereo) [Compound 146, (3R,3aR,5S)-rel-2-acetyl-5-(N,N-dimethylamino)-3,3a,4,5-tetrahydro-3-(4-methoxyphenyl)-8-methoxy-2H-benz[g]indazole] | 5.1 ± 2.2 | – | –
COc1ccc([C@H]2[C@H]3CCc4ccc(OC)cc4C3=NN2C=O)cc1 (relative stereo) [Compound 147, (3R,3aR)-rel-2-formyl-3,3a,4,5-tetrahydro-3-(4-methoxyphenyl)-8-methoxy-2H-benz[g]indazole] | 0.92 ± 0.091 | – | –
COc1ccc([C@H]2[C@H]3CCc4ccc(OC)cc4C3=NN2C(=O)COC(C)=O)cc1 (relative stereo) [Compound 150, (3R,3aR)-rel-2-acetoxyacetyl-3,3a,4,5-tetrahydro-3-(4-methoxyphenyl)-8-methoxy-2H-benz[g]indazole] | – | – | EC50 [1, 3]: 3.1 ± 0.17 µM
COc1ccc([C@H]2[C@H]3CCc4ccc(OC)cc4C3=NN2C(N)=S)cc1 (relative stereo) [Compound 152, (3R,3aR)-rel-2-carbothioamide-3,3a,4,5-tetrahydro-3-(4-methoxyphenyl)-8-methoxy-2H-benz[g]indazole] | – | – | EC50 [1, 3]: 8.8 ± 3 µM
COc1ccc([C@H]2[C@H]3CCc4ccc(OC)cc4C3=NN2C(N)=O)cc1 (relative stereo) [Compound 153, (3R,3aR)-rel-2-carboxamide-3,3a,4,5-tetrahydro-3-(4-methoxyphenyl)-8-methoxy-2H-benz[g]indazole] | – | – | EC50 [1, 3]: 4.3 ± 2.9 µM
CNC(=S)N1N=C2c3cc(OC)ccc3CC[C@@H]2[C@@H]1c1ccc(OC)cc1 (relative stereo) [Compound 154, (3R,3aR)-rel-2-carbothioamide-3,3a,4,5-tetrahydro-3-(4-methoxyphenyl)-8-methoxy-N-methyl-2H-benz[g]indazole] | – | – | EC50 [1, 3]: 7.9 ± 2 µM
COc1ccc([C@H]2[C@H]3CCc4ccc(OC)cc4C3=NN2C(=N)N)cc1 (relative stereo) [Compound 157, (3R,3aR)-rel-2-carboxamidine-3,3a,4,5-tetrahydro-3-(4-methoxyphenyl)-8-methoxy-2H-benz[g]indazole] | – | – | EC50 [1, 3]: > 100 µM
COCC(=O)N1N=C2c3cc(OC)ccc3CC[C@@H]2[C@@H]1c1ccc(OC)cc1 (relative stereo) [Compound 158, (3R,3aR)-rel-2-methoxyacetyl-3,3a,4,5-tetrahydro-3-(4-methoxyphenyl)-8-methoxy-2H-benz[g]indazole] | – | – | EC50 [1, 3]: 0.44 ± 0.24 µM
COc1ccc2c(c1)CC[C@@H]1C2=NN(C(C)=O)[C@H]1c1ccc(F)cc1 (relative stereo) [Compound 162, (3R,3aS)-rel-2-acetyl-3,3a,4,5-tetrahydro-3-(4-fluorophenyl)-7-methoxy-2H-benz[g]indazole] | > 100 | – | –
COc1ccc2c(c1)CC[C@H]1C2=NN(C(C)=O)[C@H]1c1ccc(F)cc1 (relative stereo) [Compound 163, (3R,3aR)-rel-2-acetyl-3,3a,4,5-tetrahydro-3-(4-fluorophenyl)-7-methoxy-2H-benz[g]indazole] | > 100 | loss of activity | –
COc1ccc([C@H]2[C@@H]3CCc4ccc([N+](=O)[O-])cc4C3=NN2C(C)=O)cc1 (relative stereo) [Compound 168, (3R,3aS)-rel-2-acetyl-3,3a,4,5-tetrahydro-3-(4-methoxyphenyl)-8-nitro-2H-benz[g]indazole] | > 100 | – | –
COc1ccc([C@H]2[C@H]3CCc4ccc([N+](=O)[O-])cc4C3=NN2C(C)=O)cc1 (relative stereo) [Compound 169, (3R,3aR)-rel-2-acetyl-3,3a,4,5-tetrahydro-3-(4-methoxyphenyl)-8-nitro-2H-benz[g]indazole] | 3.5 ± 1.5 | diminished inhibitory activity | –
COc1ccc([C@H]2[C@@H]3CCc4ccc(F)cc4C3=NN2C(C)=O)cc1 (relative stereo) [Compound 170, (3R,3aS)-rel-2-acetyl-3,3a,4,5-tetrahydro-3-(4-methoxyphenyl)-8-fluoro-2H-benz[g]indazole] | 2.7 ± 0.82 | – | –
COc1ccc([C@H]2[C@H]3CCc4ccc(F)cc4C3=NN2C(C)=O)cc1 (relative stereo) [Compound 171, (3R,3aR)-rel-2-acetyl-3,3a,4,5-tetrahydro-3-(4-methoxyphenyl)-8-fluoro-2H-benz[g]indazole] | 0.28 ± 0.032 | tolerated | –
COc1ccc2c(c1)C1=NN(C(C)=O)[C@@H](c3ccc(O[N+](=O)[O-])cc3)[C@H]1CC2 (relative stereo) [Compound 172, (3R,3aR)-rel-2-acetyl-3,3a,4,5-tetrahydro-3-(4-nitroxyphenyl)-8-methoxy-2H-benz[g]indazole] | 1.8 ± 0.38 | – | –

Structure (SMILES) | EC50 [1, 2] [µM] | antinecroptotic (anti-CICD) activity, in words [1] | other results
COc1ccc([C@H]2[C@H]3CCc4c(OC)cccc4C3=NN2C(C)=O)cc1 (relative stereo) [Compound 173, (3R,3aR)-rel-2-acetyl-3,3a,4,5-tetrahydro-3-(4-methoxyphenyl)-6-methoxy-2H-benz[g]indazole] | > 100 | loss of activity | –
COc1ccc2c(c1)C1=NN(C(C)=O)[C@@H](c3ccc(OCc4ccccc4)cc3)[C@H]1CC2 (relative stereo) [Compound 174, (3R,3aR)-rel-2-acetyl-3,3a,4,5-tetrahydro-3-(4-benzyloxyphenyl)-8-methoxy-2H-benz[g]indazole] | > 100 | detrimental to activity to varying degrees | –
COc1ccc2c(c1)C1=NN(C(C)=O)[C@@H](c3ccc(O)cc3)[C@H]1CC2 (relative stereo) [Compound 175, (3R,3aR)-rel-2-acetyl-3,3a,4,5-tetrahydro-3-(4-hydroxyphenyl)-8-methoxy-2H-benz[g]indazole] | 5.9 ± 1.4 | detrimental to activity to varying degrees | –
CC(=O)N1N=C2c3cc(O)ccc3CC[C@@H]2[C@@H]1c1ccc(O)cc1 (relative stereo) [Compound 176, (3R,3aR)-rel-2-acetyl-3,3a,4,5-tetrahydro-3-(4-hydroxyphenyl)-8-hydroxy-2H-benz[g]indazole] | > 100 | – | –
COc1ccc([C@H]2[C@H]3CCc4cccc(OC)c4C3=NN2C(C)=O)cc1 (relative stereo) [Compound 180, (3R,3aR)-rel-2-acetyl-3,3a,4,5-tetrahydro-3-(4-methoxyphenyl)-9-methoxy-2H-benz[g]indazole] | > 50 | loss of activity | –
COc1ccc([C@H]2[C@H]3CCc4ccc(OCc5ccccc5)cc4C3=NN2C(C)=O)cc1 (relative stereo) [Compound 181, (3R,3aR)-rel-2-acetyl-3,3a,4,5-tetrahydro-3-(4-methoxyphenyl)-8-benzyloxy-2H-benz[g]indazole] | 5 ± 0.7 | diminished activity | –
COc1ccc2c(c1)C1=NN(C(C)=O)[C@@H](c3ccc(SC)cc3)[C@H]1CC2 (relative stereo) [Compound 182, (3R,3aR)-rel-2-acetyl-3,3a,4,5-tetrahydro-3-(4-thiomethoxyphenyl)-8-methoxy-2H-benz[g]indazole] | – | detrimental to activity to varying degrees | EC50 [1, 3]: 1.1 ± 0.69 µM
COc1ccc([C@H]2[C@H]3CCc4ccc(OCCN5CCOCC5)cc4C3=NN2C(C)=O)cc1 (relative stereo) [Compound 183, (3R,3aR)-rel-2-acetyl-3,3a,4,5-tetrahydro-3-(4-methoxyphenyl)-8-(4-morpholino)ethoxy-2H-benz[g]indazole] | – | diminished activity | EC50 [1, 3]: > 50 µM
COc1ccc([C@H]2[C@@H]3CCc4ccc(OC)cc4C3=NN2C=O)cc1 (relative stereo) [Compound 195, (3R,3aS)-rel-2-formyl-3,3a,4,5-tetrahydro-3-(4-methoxyphenyl)-8-methoxy-2H-benz[g] indazole] | – | – | melting point: 166 to 168 °C
COc1cc2c(cc1OC)C1=NN(C(C)=O)[C@@H](c3ccc(F)cc3)[C@@H]1CC2 (relative stereo) [Compound 198, (3R,3aS)-rel-2-acetyl-3,3a,4,5-tetrahydro-3-(4-fluorophenyl)-7,8-dimethoxy-2H-benz[g]indazole] | – | – | melting point: 231 to 233 °C
CC(=O)N1N=C2c3ccccc3CC[C@H]2[C@@H]1c1ccc(F)cc1 (relative stereo) [Compound 199, (3R,3aS)-rel-2-acetyl-3,3a,4,5-tetrahydro-3-(4-fluorophenyl)-2H-benz[g]indazole] | – | – | melting point: 168 to 171 °C
COc1ccc2c(c1)C1=NN(C(C)=O)[C@@H](c3cccc(F)c3)[C@@H]1CC2 (relative stereo) [Compound 200, (3R,3aS)-rel-2-acetyl-3,3a,4,5-tetrahydro-3-(3-fluorophenyl)-8-methoxy-2H-benz[g]indazole] | – | – | melting point: 196 to 199 °C
CCN1N=C2c3cc(OC)ccc3CC[C@@H]2[C@@H]1c1ccc(OC)cc1 (relative stereo) [Compound 213, (3R,3aR)-rel-2-ethyl-3,3a,4,5-tetrahydro-3-(4-methoxyphenyl)-8-methoxy-2H-benz[g]indazole] | > 100 | complete loss of necroptosis inhibitory activity | –
CN1C(=O)C(Cc2c[nH]c3c(Cl)cccc23)NC1=S (centres unmarked) [Compound 7-Cl-Nec-1] | – | – | EC50 ([1]; Jurkat FADD deficient cells treated with TNFα, read-out: EC50): 0.182 µM; increase in activity relative to Nec-1 ([1]; addition of a chlorine to the phenyl ring of Nec-1): approximately 2.7 fold
CN1C(=O)N[C@H](Cc2c[nH]c3c(Cl)cccc23)C1=O [R-7-Cl—O-Nec-1] | – | – | EC50 ([1]; Homo sapiens, Jurkat FADD deficient cells treated with TNFα, read-out: EC50): 0.047 µM; potency at inhibiting CICD relative to the (S)-enantiomer ([1]; enantiomers of 7-Cl—O-Nec-1): about 4 times
